The source of these data is ChEMBL document CHEMBL1156829 (Proc Natl Acad Sci U S A, 2008).

Each structure is given as a SMILES string.

Broadly, the EC50 is the concentration giving half of the maximal effect. By CC50 is commonly meant the concentration that lowers cell viability or growth by half.

Series [1] has as its system Plasmodium falciparum. Kind of series: NOVARTIS: Inhibition of Plasmodium falciparum 3D7 (drug-susceptible) proliferation in erythrocyte-based infection assay. The format is functional, organism-based. The following applies: Plasmodium falciparum, 3D7.
Series [2] concerns Plasmodium falciparum. Kind of series: NOVARTIS: Inhibition of Plasmodium falciparum W2 (drug-resistant) proliferation in erythrocyte-based infection assay. The format is functional, organism-based. The following applies: Plasmodium falciparum, W2; read-out: EC50.
Series [3] in a line: NOVARTIS: Cytotoxicity against human hepatocellular carcinoma cell line (Huh7). The format is toxicity, cell-based, Huh-7. The following applies: Huh7 cells (hepatocellular carcinoma cell line).

Regarding `CCOC(=O)C1=C(C)NC2=C(C(=O)C(C(=O)OCC)C(c3cccc(OC)c3)C2)C1c1cc(OC)c(OC)c(OC)c1` (configuration not stated), the EC50 with Plasmodium falciparum [1] was found to be 1090 nM; in the series on Plasmodium falciparum [2] it was 494 nM. This compound also gave a CC50 in series [3] greater than 100000 nM.

Regarding `CCC(c1nc2ccccc2c(=O)n1-c1cccc(C)c1)N(Cc1ccccc1)C(=O)Nc1c(C(C)C)cccc1C(C)C` (configuration not stated), the EC50 with Plasmodium falciparum [1] stood at 395 nM; in the series on Plasmodium falciparum [2], 486 nM. The CC50 in series [3] is greater than 100000 nM.

With `CC(C)N(C)Cc1cc(-c2nc3ccccc3s2)ccc1O`, the EC50 worked out at 7870 nM with Plasmodium falciparum [1] and 509 nM with Plasmodium falciparum [2]. Further, the CC50 in series [3] is greater than 100000 nM.

On to `COc1cccc(NC(=O)c2ccc(NCCCN3CC(C)CC(C)C3)c([N+](=O)[O-])c2)c1` (configuration not stated), for which the EC50 in the series with Plasmodium falciparum [1] was 275 nM; in the series with Plasmodium falciparum [2] it was 509 nM. In addition, the CC50 in series [3] was greater than 100000 nM.

Take `CCCCCCCCn1c(C)[n+](CC)c2cc(C(=O)OCC)ccc21`: the EC50 was found to be 686 nM in the series with Plasmodium falciparum [1] and 504 nM with Plasmodium falciparum [2]. The CC50 in series [3] is greater than 100000 nM.

As for `O=C(c1ccc2nc(N3CCCCC3)sc2c1)N1CCN(Cc2ccccc2)CC1`, the results for the concentration for a half-maximal effect (EC50) with Plasmodium falciparum [1] and in the series with Plasmodium falciparum [2] were 907 nM and 503 nM, respectively. The same compound showed a CC50 in series [3] greater than 100000 nM.

As for `COc1ccccc1-n1c(C(C)N(C)C(=O)Nc2ccccc2F)nc2ccccc2c1=O` (configuration not stated), the EC50 with Plasmodium falciparum [1] was determined as 162 nM; with Plasmodium falciparum [2] it was 62.3 nM. The compound also gave a CC50 in series [3] greater than 12400 nM.

Consider `O=C1Nc2ccccc2C12Nc1ccccc1-c1nc3ccccc3n12` (configuration not stated), for which the results for the EC50 in the series with Plasmodium falciparum [1] and in the series on Plasmodium falciparum [2] were 1090 nM and 502 nM, respectively. In series [3], the CC50 is greater than 100000 nM.

On to `Cc1cc2c(cc1S(=O)(=O)N1CCCCC1C)OCC(=O)N2` (configuration not stated), for which the EC50 in the series on Plasmodium falciparum [1] was greater than 12500 nM; with Plasmodium falciparum [2], 505 nM. Besides, the CC50 in series [3] was greater than 100000 nM.

In the case of `CCC1CCCCN1CCCNC(=O)c1cn(CC)c(=O)c2cc(OC)c(OC)cc12` (configuration not stated), the EC50 in the series with Plasmodium falciparum [1] came out at 449 nM; in the series on Plasmodium falciparum [2], 505 nM. The compound further gave a CC50 in series [3] greater than 100000 nM.

Regarding `CN(CCCNc1ccnc2cc(Cl)ccc12)C(=O)c1ccc(Br)cc1`, the figures for the concentration for a half-maximal effect (EC50) in the series with Plasmodium falciparum [1] and in the series with Plasmodium falciparum [2] were 688 nM and 13.4 nM, respectively. In series [3], this compound registered a CC50 of 2610 nM.

Regarding `COc1ccccc1NC1=C(N2CCCCC2)C(=O)c2ccccc2C1=O`, the half-maximal effective concentration (EC50) came to 28 nM with Plasmodium falciparum [1] and 40.1 nM in the series with Plasmodium falciparum [2]. This compound gave a CC50 in series [3] of 7870 nM.

With `Oc1c(C(Nc2ccccn2)c2cccc(Oc3ccccc3)c2)ccc2cccnc12` (configuration not stated), the EC50 was determined as 328 nM in the series on Plasmodium falciparum [1] and 320 nM in the series on Plasmodium falciparum [2]. This compound displayed a CC50 in series [3] of 62800 nM.

For `COc1cc2ncnc(NC3CCN(Cc4ccccc4)CC3)c2cc1OC`, the 50% effective concentration (EC50) in the series with Plasmodium falciparum [1] worked out at 400 nM; in the series on Plasmodium falciparum [2], 485 nM. For the same compound, the CC50 in series [3] is greater than 100000 nM.

With `O=C(Nc1c2ccccc2nc2ccccc12)c1cc(Cl)ccc1O`, the values for the EC50 in the series on Plasmodium falciparum [1] and with Plasmodium falciparum [2] were 1130 nM and 484 nM, respectively. Also, the CC50 in series [3] is greater than 100000 nM.

In the case of `S=P(OCC1C(COP(=S)(c2ccccc2)c2ccccc2)C1(Cl)Cl)(c1ccccc1)c1ccccc1` (configuration not stated), the EC50 with Plasmodium falciparum [1] is 385 nM; in the series on Plasmodium falciparum [2], 484 nM. Further, the cytotoxic concentration (CC50) in series [3] was greater than 100000 nM.

For `OC(CNCC1CCCO1)Cn1c2ccc(Br)cc2c2cc(Br)ccc21` (configuration not stated), the EC50 with Plasmodium falciparum [1] was found to be 261 nM; in the series on Plasmodium falciparum [2], 99 nM. This compound also showed a CC50 in series [3] of 20300 nM.

`CCOC(=O)c1ccc2nc(-c3ccccc3)cc(O)c2c1`: the half-maximal effective concentration (EC50) with Plasmodium falciparum [1] was 549 nM; with Plasmodium falciparum [2] it was 493 nM. In addition, the CC50 in series [3] was greater than 100000 nM.

`O=C(C(Cc1c[nH]c2ccccc12)NS(=O)(=O)c1ccc(Cl)cc1)N1CCCCC1` (configuration not stated): the EC50 in the series on Plasmodium falciparum [1] was determined as 719 nM; in the series on Plasmodium falciparum [2] it was 488 nM. Moreover, the CC50 in series [3] was greater than 100000 nM.

Regarding `Clc1ccc2[nH]c3c(NCCCN4CCOCC4)ncnc3c2c1`, the EC50 in the series on Plasmodium falciparum [1] was determined as 109 nM; with Plasmodium falciparum [2], 152 nM. The CC50 in series [3] came out at 31200 nM.

Turning to `CCOC(=O)COc1ccc(C2NC(=S)NC(C)=C2C(C)=O)cc1OC` (configuration not stated), the EC50 stood at 4030 nM in the series with Plasmodium falciparum [1] and 496 nM in the series with Plasmodium falciparum [2]. This compound also had a CC50 in series [3] greater than 100000 nM.

Consider `Cc1cc(C)n(-c2ccc(NC(=O)C3CCN(Cc4ccc5nonc5c4)CC3)cc2)n1`, for which the results for the concentration giving a half-maximal response (EC50) in the series with Plasmodium falciparum [1] and in the series on Plasmodium falciparum [2] were 430 nM and 412 nM, respectively. The same compound displayed a CC50 in series [3] greater than 83200 nM.

On to `CSc1nnc(-c2cccc([N+](=O)[O-])c2)n1Cc1ccccc1`, for which the figures for the EC50 in the series with Plasmodium falciparum [1] and in the series on Plasmodium falciparum [2] were 652 nM and 495 nM, respectively. The CC50 in series [3] is greater than 100000 nM.

Turning to `COc1cccc(N2C(N)=NC(N)=NC2(C)C)c1`, the values for the EC50 with Plasmodium falciparum [1] and in the series with Plasmodium falciparum [2] were 55.5 nM and 498 nM, respectively. Further, in series [3], the CC50 was greater than 100000 nM.

With `COc1ccc(C2c3[nH]c4ccccc4c3C[C@H]3C(=O)N(CCC(C)C)CC(=O)N23)cc1` (some centres not stated), the values for the EC50 in the series with Plasmodium falciparum [1] and in the series with Plasmodium falciparum [2] were 3190 nM and 497 nM, respectively. Further, in series [3], the CC50 was greater than 100000 nM.

Consider `CC(=O)N(C1=C(N2CCN(C)CC2)C(=O)c2ccccc2C1=O)c1cc(C)cc(C)c1`, for which the EC50 in the series with Plasmodium falciparum [1] is 67 nM; in the series with Plasmodium falciparum [2], 61.2 nM. The compound also displayed a CC50 in series [3] of 12600 nM.

Regarding `Cc1cccc(N2C(=O)C3C(C2=O)C2(c4ccccc4)C(=O)C3(c3ccccc3)C(c3ccc4c(c3)OCO4)=C2c2ccc3c(c2)OCO3)c1` (configuration not stated), the half-maximal effective concentration (EC50) in the series on Plasmodium falciparum [1] stood at 1070 nM; in the series on Plasmodium falciparum [2] it was 508 nM. This compound had a CC50 in series [3] greater than 100000 nM.

For `N#Cc1c2c(c(N3CCN(C4CCCCC4)CC3)n3c1nc1ccccc13)CCC2`, the EC50 in the series with Plasmodium falciparum [1] amounted to 183 nM; in the series with Plasmodium falciparum [2], 511 nM. The compound further came in with a CC50 in series [3] greater than 100000 nM.

`CCN(CC)C(=O)COc1ccc(-c2nnc(N3CCCCC3)c3ccccc23)cc1`: the EC50 in the series with Plasmodium falciparum [1] was 1740 nM; in the series with Plasmodium falciparum [2] it was 508 nM. Besides, the CC50 in series [3] was greater than 100000 nM.

Consider `Cc1cnc(C)c(-c2ccc(O)c(CNCC3(N4CCCCC4)CCCCC3)c2)n1`, for which the EC50 with Plasmodium falciparum [1] amounted to 326 nM; in the series on Plasmodium falciparum [2], 39.8 nM. In addition, the CC50 in series [3] is greater than 7780 nM.

Consider `CCCCOc1ccc(C(=O)Nc2cc(C)on2)cc1`, for which the figures for the EC50 in the series with Plasmodium falciparum [1] and in the series on Plasmodium falciparum [2] were 3160 nM and 510 nM, respectively. In series [3], this compound had a CC50 greater than 100000 nM.

As to `COc1cc(C(=O)NC2CC3CCC(C2)N3C2CC2)cc(OC)c1OC` (configuration not stated), the EC50 was found to be 450 nM with Plasmodium falciparum [1] and 487 nM in the series on Plasmodium falciparum [2]. This compound also returned a CC50 in series [3] greater than 100000 nM.

Take `C=CCOc1ccc(C2C(C(=O)OCC)=C(C)N=c3sc(=Cc4ccccc4O)c(=O)n32)cc1OCC` (configuration not stated): the EC50 in the series on Plasmodium falciparum [1] is 608 nM; with Plasmodium falciparum [2] it was 263 nM. Further, the CC50 in series [3] was 53300 nM.

With `CCc1cc2c(NCCN3CCCCC3)ncnc2s1`, the values for the EC50 with Plasmodium falciparum [1] and in the series with Plasmodium falciparum [2] were 1320 nM and 466 nM, respectively. This compound showed a CC50 in series [3] greater than 96100 nM.

Consider `O=c1[nH]n(CC2COC(c3ccccc3)O2)c(=O)c2ccccc12` (configuration not stated), for which the EC50 is 678 nM with Plasmodium falciparum [1] and 488 nM in the series with Plasmodium falciparum [2]. In series [3], this compound showed a CC50 greater than 100000 nM.

For the compound `CC1=C(C(=O)OC2CCCC2)C(c2ccc(Cl)cc2)C2=C(CC(c3ccc(Cl)cc3)CC2=O)N1` (configuration not stated), the EC50 in the series with Plasmodium falciparum [1] stood at 2590 nM; in the series with Plasmodium falciparum [2], 487 nM. In series [3], this compound registered a CC50 greater than 100000 nM.

On to `N#CC(=Cc1ccc(Sc2ccccc2)o1)c1nc2ccccc2[nH]1`, for which the EC50 in the series with Plasmodium falciparum [1] was 1050 nM; with Plasmodium falciparum [2], 501 nM. Also, the CC50 in series [3] is greater than 100000 nM.

In the case of `C#CC[N+]1(CC#Cc2cccc3ccccc23)CCCCC1`, the EC50 in the series with Plasmodium falciparum [1] worked out at 973 nM; with Plasmodium falciparum [2], 484 nM. The compound also had a CC50 in series [3] greater than 100000 nM.

For `CN(CCCNc1ccnc2cc(Cl)ccc12)C(=O)c1ccc(C(F)(F)F)cc1`, the results for the EC50 in the series with Plasmodium falciparum [1] and in the series on Plasmodium falciparum [2] were 166 nM and 319 nM, respectively. This compound also gave a CC50 in series [3] of 64600 nM.
